From PubChem BioAssay AID248 (DTP/NCI, 2004)
Values joined by “and” are separate entries in the source; they are usually repeats but may differ in a detail not shown here. Identical values can stand only once. Inconclusive results and toxic doses are left out.

Test system: L1210 leukemia ip in BDF1 mice, survival T/C
Experiment: NCI In Vivo Anticancer Drug Screen. Data for tumor model L1210 Leukemia (intraperitoneal) in B6D2F1 (BDF1) mice
Conditions: endpoint: mean survival time, higher = longer survival
Summary of the method: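 Transplantable tumor model; survival measured in treated vs vehicle control mice. Value = treated/control.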

[1] = dose: 100.0 mg/kg/injection, schedule: Q04DX003 (ip), vehicle: Klucel (hydroxypropylcellulose) (HPC)
[2] = dose: 200.0 mg/kg/injection, schedule: Q04DX003 (ip), vehicle: Klucel (hydroxypropylcellulose) (HPC)
[3] = dose: 100.0 mg/kg/injection, schedule: Q04DX002 (ip), vehicle: saline with Tween-80
[4] = dose: 200.0 mg/kg/injection, schedule: Q04DX002 (ip), vehicle: saline with Tween-80
[5] = dose: 400.0 mg/kg/injection, schedule: Q04DX002 (ip), vehicle: saline with Tween-80
[6] = dose: 100.0 mg/kg/injection, schedule: Q01DX009 (ip), vehicle: saline
[7] = dose: 200.0 mg/kg/injection, schedule: Q01DX009 (ip), vehicle: saline
[8] = dose: 400.0 mg/kg/injection, schedule: Q01DX009 (ip), vehicle: saline
[9] = dose: 100.0 mg/kg/injection, schedule: Q01DX001 (ip), vehicle: carboxymethylcellulose (CMC)
[10] = dose: 200.0 mg/kg/injection, schedule: Q01DX001 (ip), vehicle: carboxymethylcellulose (CMC)
[11] = dose: 100.0 mg/kg/injection, schedule: Q01DX009 (ip), vehicle: Klucel (hydroxypropylcellulose) (HPC)
[12] = dose: 200.0 mg/kg/injection, schedule: Q04DX003 (ip), vehicle: saline with Tween-80

Cc1nc(N)nc(N)c1-c1ccc(Cl)c(Cl)c1
T/C (dose: 0.6 mg/kg/injection, schedule: Q01DX Z (ip), vehicle: methylcellulose (MC)): 106 % of control | T/C (dose: 1.0 mg/kg/injection, schedule: Q01DX009 (ip), vehicle: saline with Tween-80): 102 % of control | T/C (dose: 1.0 mg/kg/injection, schedule: Q01DX Z (ip), vehicle: methylcellulose (MC)): 102 % of control | T/C (dose: 1.0 mg/kg/injection, schedule: Q04DX009 (ip), vehicle: Klucel (hydroxypropylcellulose) (HPC)): 96 % of control | T/C (dose: 1.08 mg/kg/injection, schedule: Q01DX009 (ip), vehicle: saline): 117 % of control | T/C (dose: 1.5 mg/kg/injection, schedule: Q01DX Z (ip), vehicle: methylcellulose (MC)): 106 % of control | T/C (dose: 1.8 mg/kg/injection, schedule: Q01DX009 (ip), vehicle: saline): 107 % of control | T/C (dose: 2.0 mg/kg/injection, schedule: Q04DX009 (ip), vehicle: Klucel (hydroxypropylcellulose) (HPC)): 120 % of control | T/C (dose: 2.3 mg/kg/injection, schedule: Q01DX Z (ip), vehicle: methylcellulose (MC)): 112 % of control | T/C (dose: 3.0 mg/kg/injection, schedule: Q01DX009 (ip), vehicle: saline): 114 % of control | T/C (dose: 3.0 mg/kg/injection, schedule: Q01DX010 (sc), vehicle: other): 152 % of control | T/C (dose: 4.0 mg/kg/injection, schedule: Q01DX010 (sc), vehicle: other): 152 % of control | T/C (dose: 4.0 mg/kg/injection, schedule: Q01DX Z (ip), vehicle: methylcellulose (MC)): 118 % of control | T/C (dose: 5.0 mg/kg/injection, schedule: Q01DX009 (ip), vehicle: saline): 122 % of control | T/C (dose: 6.0 mg/kg/injection, schedule: Q01DX Z (ip), vehicle: methylcellulose (MC)): 123 % of control | T/C (dose: 8.0 mg/kg/injection, schedule: Q01DX009 (ip), vehicle: saline with Tween-80): 102 % of control | T/C (dose: 8.0 mg/kg/injection, schedule: Q04DX009 (ip), vehicle: Klucel (hydroxypropylcellulose) (HPC)): 115 % of control | T/C (dose: 8.4 mg/kg/injection, schedule: Q04DX003 (ip), vehicle: saline): 102 % of control | T/C (dose: 12.5 mg/kg/injection, schedule: Q04DX003 (ip), vehicle: saline): 95 % of control | T/C (dose: 14.0 mg/kg/injection, schedule: Q04DX003 (ip), vehicle: saline): 115 % of control | T/C (dose: 16.0 mg/kg/injection, schedule: Q01DX009 (ip), vehicle: saline with Tween-80): 90 % of control | T/C (dose: 16.0 mg/kg/injection, schedule: Q04DX009 (ip), vehicle: Klucel (hydroxypropylcellulose) (HPC)): 110 % of control | T/C (dose: 23.0 mg/kg/injection, schedule: Q04DX003 (ip), vehicle: saline): 105 % of control | T/C (dose: 25.0 mg/kg/injection, schedule: Q01DX001 (ip), vehicle: saline): 98 % of control | T/C (dose: 25.0 mg/kg/injection, schedule: Q04DX003 (ip), vehicle: saline): 122 % of control | T/C (dose: 39.0 mg/kg/injection, schedule: Q04DX003 (ip), vehicle: saline): 119 % of control | T/C (dose: 50.0 mg/kg/injection, schedule: Q01DX001 (ip), vehicle: saline): 112 % of control | T/C (dose: 65.0 mg/kg/injection, schedule: Q04DX003 (ip), vehicle: saline): 115 % of control | T/C (dose: 200.0 mg/kg/injection, schedule: Q01DX001 (ip), vehicle: saline): 88 % of control

CS(=O)(=O)c1ccc(F)cc1
T/C [1]: 103 % of control | T/C [2]: 103 % of control | T/C (dose: 400.0 mg/kg/injection, schedule: Q04DX003 (ip), vehicle: Klucel (hydroxypropylcellulose) (HPC)): 97 % of control

CCOC(=O)c1ccc(NC(=O)CCCCCCCCC(=O)Nc2ccc(C(=O)OCC)cc2)cc1
T/C (dose: 100.0 mg/kg/injection, schedule: Q04DX002 (ip), vehicle: Klucel (hydroxypropylcellulose) (HPC)): 91 % of control | T/C (dose: 200.0 mg/kg/injection, schedule: Q04DX002 (ip), vehicle: Klucel (hydroxypropylcellulose) (HPC)): 102 % of control | T/C (dose: 400.0 mg/kg/injection, schedule: Q04DX002 (ip), vehicle: Klucel (hydroxypropylcellulose) (HPC)): 95 % of control

CCC(=O)c1ccc(OC)cc1
T/C [3]: 91 % of control | T/C [4]: 91 % of control | T/C [5]: 91 % of control

CCOC(=O)N1CCOCC1
T/C [6]: 100 % of control | T/C [7]: 97 % of control | T/C [8]: 96 % of control

COc1cc(CCO)cc(OC)c1
T/C [9]: 86 % of control | T/C [10]: 86 % of control

CC(=O)Oc1cc(Cl)c(Cl)cc1Cl
T/C [6]: 100 % of control | T/C (dose: 100.0 mg/kg/injection, schedule: Q04DX002 (ip), vehicle: gum acacia): 102 % of control | T/C [7]: 100 % of control | T/C (dose: 200.0 mg/kg/injection, schedule: Q04DX002 (ip), vehicle: gum acacia): 110 % of control | T/C [8]: 102 % of control | T/C (dose: 400.0 mg/kg/injection, schedule: Q04DX002 (ip), vehicle: gum acacia): 94 % of control

C=CCOCC(O)CN(CCC(C)C)CCC(C)C (centres undefined)
T/C (dose: 25.0 mg/kg/injection, schedule: Q01DX009 (ip), vehicle: Klucel (hydroxypropylcellulose) (HPC)): 95 % of control | T/C (dose: 50.0 mg/kg/injection, schedule: Q01DX009 (ip), vehicle: Klucel (hydroxypropylcellulose) (HPC)): 97 % of control | T/C [11]: 96 % of control and 100 % of control | T/C [1]: 102 % of control | T/C [2]: 91 % of control

CC(=O)OC1CCC2(C)C(=CCC3C2CCC2(C)C(C(C)N)CCC32)C1 (centres undefined)
T/C (dose: 100.0 mg/kg/injection, schedule: Q01DX001 (sc), vehicle: steriod suspending solution): 90 % of control | T/C (dose: 400.0 mg/kg/injection, schedule: Q01DX001 (sc), vehicle: steriod suspending solution): 90 % of control

O=C(Nc1cc(C(F)(F)F)ccc1Cl)n1cccc1
T/C [11]: 113 % of control | T/C (dose: 200.0 mg/kg/injection, schedule: Q01DX009 (ip), vehicle: Klucel (hydroxypropylcellulose) (HPC)): 113 % of control | T/C (dose: 400.0 mg/kg/injection, schedule: Q01DX009 (ip), vehicle: Klucel (hydroxypropylcellulose) (HPC)): 106 % of control

CCOC(=O)c1ccc(NC(=O)Nc2cc(OC)c(Cl)cc2OC)cc1
T/C (dose: 100.0 mg/kg/injection, schedule: Q01DX001 (ip), vehicle: saline with Tween-80): 93 % of control | T/C [3]: 97 % of control | T/C (dose: 200.0 mg/kg/injection, schedule: Q01DX001 (ip), vehicle: saline with Tween-80): 101 % of control | T/C [4]: 100 % of control | T/C (dose: 400.0 mg/kg/injection, schedule: Q01DX001 (ip), vehicle: saline with Tween-80): 88 % of control | T/C [5]: 97 % of control

CCCCc1ccc(-n2cnc3c(=O)[nH]c(N)nc32)cc1
T/C (dose: 100.0 mg/kg/injection, schedule: Q04DX003 (ip), vehicle: saline with Tween-80): 88 % of control | T/C [12]: 97 % of control

COc1ccc(N=Cc2cccc(OC)c2O)cc1.COc1ccc(N=Cc2cccc(OC)c2O)cc1.[Co]
T/C (dose: 50.0 mg/kg/injection, schedule: Q04DX003 (ip), vehicle: saline with Tween-80): 92 % of control | T/C [12]: 92 % of control | T/C (dose: 400.0 mg/kg/injection, schedule: Q04DX003 (ip), vehicle: saline with Tween-80): 95 % of control

O=C(c1ccccc1)C(Cl)C(=O)c1ccccc1
T/C (dose: 12.5 mg/kg/injection, schedule: Q04DX003 (ip), vehicle: Klucel (hydroxypropylcellulose) (HPC)): 94 % of control | T/C (dose: 25.0 mg/kg/injection, schedule: Q04DX003 (ip), vehicle: Klucel (hydroxypropylcellulose) (HPC)): 115 % of control | T/C (dose: 50.0 mg/kg/injection, schedule: Q04DX003 (ip), vehicle: Klucel (hydroxypropylcellulose) (HPC)): 96 % of control | T/C (dose: 100.0 mg/kg/injection, schedule: Q01DX001 (ip), vehicle: Klucel (hydroxypropylcellulose) (HPC)): 98 % of control | T/C [1]: 100 % of control | T/C (dose: 200.0 mg/kg/injection, schedule: Q01DX001 (ip), vehicle: Klucel (hydroxypropylcellulose) (HPC)): 97 % of control | T/C (dose: 400.0 mg/kg/injection, schedule: Q01DX001 (ip), vehicle: Klucel (hydroxypropylcellulose) (HPC)): 95 % of control

CC(C)(C)c1ccc(OC(=O)NCCCCCCNC(=O)Oc2ccc(C(C)(C)C)cc2)cc1
T/C (dose: 100.0 mg/kg/injection, schedule: Q01DX009 (ip), vehicle: other): 96 % of control | T/C (dose: 200.0 mg/kg/injection, schedule: Q01DX009 (ip), vehicle: other): 91 % of control | T/C (dose: 400.0 mg/kg/injection, schedule: Q01DX009 (ip), vehicle: other): 87 % of control

CCOc1ccccc1C1N2CCN(CC2)C(c2ccccc2OCC)N2CCN1CC2 (centres undefined)
T/C (dose: 50.0 mg/kg/injection, schedule: Q01DX001 (ip), vehicle: carboxymethylcellulose (CMC)): 100 % of control | T/C [9]: 100 % of control | T/C [10]: 100 % of control | T/C (dose: 400.0 mg/kg/injection, schedule: Q01DX001 (ip), vehicle: carboxymethylcellulose (CMC)): 105 % of control
